Reference: patent publication US5750754A, “Heterocyclic compounds” (Zeneca Limited, priority 1993, dated 1998)
Where two headings read alike, the source gives them in different places.

Columns and labels:
[1] = molecular target: T1, purified human platelet fibrinogen receptor (GPIIb/IIIa) (Homo sapiens, UniProt P05106+P08514); assay: Test (b): GPIIb/IIIa ELISA, inhibition of biotinylated fibrinogen binding; conditions: purified human platelet GPIIb/IIIa, ELISA
T1 construct: is isolated from human platelet lysates; from tissue
T1 sequence (P08514 32-887 limits assumed): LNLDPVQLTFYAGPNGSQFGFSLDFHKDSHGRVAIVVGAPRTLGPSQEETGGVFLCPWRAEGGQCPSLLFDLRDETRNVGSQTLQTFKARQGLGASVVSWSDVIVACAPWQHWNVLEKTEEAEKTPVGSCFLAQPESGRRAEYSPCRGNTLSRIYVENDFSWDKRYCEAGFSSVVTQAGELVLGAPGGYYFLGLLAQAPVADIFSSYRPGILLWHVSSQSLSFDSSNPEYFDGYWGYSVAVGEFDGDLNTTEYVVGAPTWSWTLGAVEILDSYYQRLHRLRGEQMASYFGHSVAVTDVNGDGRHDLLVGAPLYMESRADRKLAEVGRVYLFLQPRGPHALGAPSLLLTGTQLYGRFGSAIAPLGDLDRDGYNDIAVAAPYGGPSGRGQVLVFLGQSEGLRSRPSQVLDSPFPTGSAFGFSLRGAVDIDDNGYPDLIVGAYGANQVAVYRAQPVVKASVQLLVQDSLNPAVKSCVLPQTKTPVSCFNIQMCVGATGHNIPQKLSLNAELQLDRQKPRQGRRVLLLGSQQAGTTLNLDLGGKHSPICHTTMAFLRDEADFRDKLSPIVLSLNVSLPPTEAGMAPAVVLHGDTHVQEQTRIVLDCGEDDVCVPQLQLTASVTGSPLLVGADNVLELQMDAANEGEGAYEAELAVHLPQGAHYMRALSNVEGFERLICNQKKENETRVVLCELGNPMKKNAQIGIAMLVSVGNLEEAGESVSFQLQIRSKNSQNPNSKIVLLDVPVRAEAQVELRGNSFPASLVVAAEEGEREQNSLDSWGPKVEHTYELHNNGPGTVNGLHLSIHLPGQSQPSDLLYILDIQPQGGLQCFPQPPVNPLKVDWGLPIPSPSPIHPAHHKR
T1 sequence (P08514 891-1039 limits assumed): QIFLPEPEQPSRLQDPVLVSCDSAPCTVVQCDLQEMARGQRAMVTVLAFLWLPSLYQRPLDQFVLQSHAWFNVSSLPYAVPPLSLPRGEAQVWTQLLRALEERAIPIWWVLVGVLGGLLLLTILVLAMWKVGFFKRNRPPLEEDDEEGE
T1 sequence (P05106 27-788): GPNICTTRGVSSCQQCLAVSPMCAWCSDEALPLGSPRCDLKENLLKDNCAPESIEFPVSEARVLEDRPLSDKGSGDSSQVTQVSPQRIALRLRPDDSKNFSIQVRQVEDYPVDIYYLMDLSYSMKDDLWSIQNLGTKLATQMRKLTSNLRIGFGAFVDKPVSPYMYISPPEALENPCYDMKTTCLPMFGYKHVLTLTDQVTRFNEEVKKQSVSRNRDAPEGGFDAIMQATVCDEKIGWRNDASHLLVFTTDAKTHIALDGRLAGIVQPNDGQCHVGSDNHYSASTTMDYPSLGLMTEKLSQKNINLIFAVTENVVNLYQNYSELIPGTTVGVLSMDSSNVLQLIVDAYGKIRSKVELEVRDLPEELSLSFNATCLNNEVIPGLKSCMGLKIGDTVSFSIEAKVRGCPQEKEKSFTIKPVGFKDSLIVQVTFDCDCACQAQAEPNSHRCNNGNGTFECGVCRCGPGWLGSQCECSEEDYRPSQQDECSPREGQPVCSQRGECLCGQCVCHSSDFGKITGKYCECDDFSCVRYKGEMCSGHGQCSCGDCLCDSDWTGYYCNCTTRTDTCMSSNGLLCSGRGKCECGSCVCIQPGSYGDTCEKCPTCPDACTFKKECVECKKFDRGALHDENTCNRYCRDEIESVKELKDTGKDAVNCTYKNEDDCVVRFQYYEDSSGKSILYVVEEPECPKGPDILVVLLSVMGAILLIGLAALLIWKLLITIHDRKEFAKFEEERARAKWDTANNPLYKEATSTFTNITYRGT
In short: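 Inhibition of biotinylated fibrinogen ([…]) binding to immobilised human platelet fibrinogen receptor, purified by KYGRGDS peptide affinity chromatography, was measured after 2 h at 30 °C. Readout: streptavidin–biotin-HRP colour with TMB at […]; value expressed as pIC50.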

[2] = molecular target: T2, human, citrated, platelet-rich plasma (Homo sapiens, UniProt P05106+P08514); assay: Test (a): inhibition of ADP stimulated platelet aggregation (Born); format: cell-based; conditions: ADP induced aggregation of human platelet-rich plasma
T2 construct: aggregating human, citrated, platelet-rich plasma; endogenous in cells; host or cells: human platelets in citrated platelet-rich plasma
T2 sequence (P08514 32-887 limits assumed): as the sequence (P08514 32-887 limits assumed) above
T2 sequence (P08514 891-1039 limits assumed): as the sequence (P08514 891-1039 limits assumed) above
T2 sequence (P05106 27-788): as the sequence (P05106 27-788) above
In short: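 pA2 calculated by comparing ADP EC50-type (50% response) values in presence and absence of compound, averaged across concentrations (generally 10-^5 M to 10-^10 M). Aggregation (Born) induced by ADP in citrated human platelet-rich plasma, giving dose-response curves.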

[3] = read-out: Test (b): pIC50 (-log(IC50)), 50% inhibition of biotinylated fibrinogen binding to GPIIb/IIIa (converted)
[4] = read-out: Test (a): pA2 value indicating potency of platelet aggregation inhibition (converted)
[5] = Test (b): pIC50 (-log(IC50)), 50% inhibition of biotinylated fibrinogen binding to GPIIb/IIIa
[6] = Test (a): pA2 value indicating potency of platelet aggregation inhibition

IC50 [1, 3] | Kb [2, 4] | SMILES | other results
501 nM | 7940 nM | O=C(O)C=Cc1ccc(CN2CCN(c3ccncc3)CC2)cc1 [Example 77, 4-[[4-(4-Pyridyl)piperazin-1-yl]methylene]cinnamic acid] | 
 |  | CC(C(=O)c1ccc(OCC(=O)O)c(OCC(=O)O)c1)N1CCN(c2ccncc2)CC1 (stereo not shown) [Example 79, 4-[2-[(4-Pyridyl)piperazin-1-yl]-2-methyl]acetyl-1,2-diphenoxydiacetic acid] | IC50 [1, 5]: 3.16 nM; Kb [2, 6]: 12.6 nM
 |  | COC(=O)COc1ccc2c(c1)CCC(N1CCN(c3ccncc3)CC1)C2=O (stereo not shown) [Example 80, Methyl 2-[4-(4-pyridyl)piperazin-1-yl]tetralone-6-oxyacetate] | IC50 [1, 5]: 398 nM; Kb [2, 6]: 251 nM
200 nM | 15800 nM | CCCCS(=O)(=O)N[C@@H](Cc1ccc(OCCCC2CCN(c3ccncc3)CC2)cc1)C(=O)OC [Example 81, Methyl 2-S-(n-butylsulphonylamino)-3-[4-[3-[1-(4-pyridyl)piperidin-4-yl]propoxy]phenyl]propionate] | 
12.6 nM | 501 nM | CCCCS(=O)(=O)N[C@@H](Cc1ccc(OCCCC2CCN(c3ccncc3)CC2)cc1)C(=O)O [Example 82, 2-S-(n-Butylsulphonylamino)-3-[4-[3-[1-(4-pyridyl)piperidin-4-yl]propoxy]phenyl]propionic acid] | 
251 nM | 1580 nM | COC(=O)[C@H](Cc1ccc(OCCC2CCN(c3ccncc3)CC2)cc1)NS(C)(=O)=O [Example 85, Methyl 2-S-(methsulphonylamino)-3-[4-[2-[1-(4-pyridyl)piperidin-4-yl]ethoxy]phenyl]propionate] | 
200 nM | 3980 nM | COC(=O)[C@H](Cc1ccc(OCCC2CCN(c3ccncc3)CC2)cc1)NS(=O)(=O)Cc1ccccc1 [Example 86, Methyl 2-S-(benzylsulphonylamino)-3-[4-[2-[1-(4-pyridyl)piperidin-4-yl]ethoxy]phenyl]propionate] | 
63.1 nM | 2510 nM | COC(=O)[C@H](Cc1ccc(OCCC2CCN(c3ccncc3)CC2)cc1)NS(=O)(=O)c1ccc(C)cc1 [Example 87, Methyl 2-S-(4-methylphenylsulphonylamino)-3-[4-[2-[1-(4-pyridyl)piperidin-4-yl]ethoxy]phenyl]propionate] | 
2.51 nM | 1 nM | CS(=O)(=O)N[C@@H](Cc1ccc(OCCC2CCN(c3ccncc3)CC2)cc1)C(=O)O [Example 88, 2-S-(Methylsulphonylamino)-3-[4-[2-[1-(4-pyridyl)piperidin-4-yl]ethoxy]phenyl]propionic acid] | 
2 nM | 39.8 nM | O=C(O)[C@H](Cc1ccc(OCCC2CCN(c3ccncc3)CC2)cc1)NS(=O)(=O)Cc1ccccc1 [Example 89, 2-S-(Benzylsulphonylamino)-3-[4-[2-[1-(4-pyridyl)piperidin-4-yl]ethoxy]phenyl]propionic acid] | 
3.16 nM | 10 nM | Cc1ccc(S(=O)(=O)N[C@@H](Cc2ccc(OCCC3CCN(c4ccncc4)CC3)cc2)C(=O)O)cc1 [Example 90, Lithium 2-S-(4-methylphenylsulphonylamino)-3-[4-[2-[1-(4-pyridyl)piperidin-4-yl]ethoxy]phenyl]propionate] | 
200 nM | 158 nM | CCCCC(=O)N[C@@H](Cc1ccc(OCCC2CCN(c3ccncc3)CC2)cc1)C(=O)OC [Example 91, Methyl 2-S-(pentanoylamino)-3-[4-[2-[1-(4-pyridyl)piperidin-4-yl]ethoxy]phenyl]propionate] | 
79.4 nM | 2000 nM | CCCCC(=O)N[C@@H](Cc1ccc(OCC2CCN(c3ccncc3)CC2)cc1)C(=O)OC [Example 92, Methyl 2-S-(pentanoylamino)-3-[4-[1-(4-pyridyl)piperidin-4-yl]methoxyphenyl]propionate] | 
3.16 nM | 12.6 nM | CCCCC(=O)N[C@@H](Cc1ccc(OCCC2CCN(c3ccncc3)CC2)cc1)C(=O)O [Example 93, 2-S-(Pentanoylamino)-3-[4-[2-[1-(4-pyridyl)piperidin-4-yl]ethoxy]phenyl]propionic acid] | 
2.51 nM | 316 nM | O=C(N[C@@H](Cc1ccc(OCCC2CCN(c3ccncc3)CC2)cc1)C(=O)O)OCc1ccccc1 [Example 94, 2-S-(Benzyloxycarbonylamino)-3-[4-[2-[1-(4-pyridyl)piperidin-4-yl]ethoxy]phenyl]propionic acid] | 
7940 nM | 10000 nM | CCCCS(=O)(=O)N[C@@H](Cc1ccc(OCCCN(C)c2ccncc2)cc1)C(=O)OC [Example 95, Methyl-2-S-(n-butylsulphonylamino)-3-[3-(N-methyl-N-4-pyridyl)aminopropoxy]phenylpropionate] | 
3.98 nM | 79.4 nM | CCCCS(=O)(=O)N[C@@H](Cc1ccc(OCCCN(C)c2ccncc2)cc1)C(=O)O [Example 96] | 
3160 nM | 3980 nM | CCCCS(=O)(=O)NC(CC(=O)OC)c1ccc(OCC2CCN(c3ccncc3)CC2)cc1 (stereo not shown) [Example 97, Methyl 3-(n-butylsulphonylamino)-3-[4-[1-(4-pyridyl)piperidin-4-yl]-methoxyphenyl]propionate] | 
 |  | CCCCS(=O)(=O)NC(CC(=O)O)c1ccc(OCC2CCN(c3ccncc3)CC2)cc1 (stereo not shown) [Example 98, 3-(n-Butylsulphonylamino)-3-[4-[1-(4-pyridyl)piperidin-4-yl]methoxyphenyl]propionic acid] | Test (b): pIC50 (-log(IC50)), 50% inhibition of biotinylated fibrinogen binding to GPIIb/IIIa [1]: 8.5; Test (a): pA2 value indicating potency of platelet aggregation inhibition [2]: 7.6
251 nM | 3980 nM | COC(=O)CC(NS(=O)(=O)c1ccc(C)cc1)c1ccc(OCC2CCN(c3ccncc3)CC2)cc1 (stereo not shown) [Example 99, Methyl 3-(4-methylphenylsulphonylamino)-3-[4-[1-(4-pyridyl)piperidin-4-yl]methoxyphenyl]propionate] | 
3980 nM | 39800 nM | CCCCS(=O)(=O)N[C@H](Cc1ccc(OCC2CCN(c3ccncc3)CC2)cc1)C(=O)OC [Example 100, Methyl 2-R-(n-butylsulphonylamino)-3-[4-[1-(4-pyridyl)piperidin-4-yl]methoxyphenyl]propionate] | 
31.6 nM | 501 nM | CCCCS(=O)(=O)N[C@H](Cc1ccc(OCC2CCN(c3ccncc3)CC2)cc1)C(=O)O [Example 101] | 
1580 nM | 2000 nM | O=C(O)CC1(O)CCC(N2CCN(c3ccncc3)CC2)CC1 (stereo not drawn) [Example 102, cis-1-Hydroxy-4[4-(4-pyridyl)piperazin-1-yl]cyclohexaneacetic acid] | 

SMILES | IC50 [1, 3] | Kb [2, 4] | other results
COC(=O)COc1ccc(C(=O)C(C)N2CCN(c3ccncc3)CC2)cc1OCC(=O)OC (stereo not shown) [Example 78] | 251 nM | 158 nM | 
CCCCS(=O)(=O)N[C@@H](Cc1ccc(OCCCCC2CCN(c3ccncc3)CC2)cc1)C(=O)OC [Example 83, Methyl 2-S-(butylsulphonylamino)-3-[4-[4-[1-(4-pyridyl)piperidin-4-yl]-butoxy]phenyl]propionate] | 2000 nM | 39800 nM | 
CCCCS(=O)(=O)N[C@@H](Cc1ccc(OCCCCC2CCN(c3ccncc3)CC2)cc1)C(=O)O [Example 84, 2-S-(n-Butylsulphonylamino)-3-[4-[4-[1-(4-pyridyl)piperidin-4-yl]butoxy]phenyl]propionic acid] | 20 nM | 63.1 nM | 
